Measurements reported in ChEMBL document CHEMBL1157539, “Thousands of chemical starting points for antimalarial lead identification” (Nature, 2010).

system: Plasmodium falciparum; assay: GSK_TCMDC: Inhibition of Plasmodium falciparum 3D7 in whole erythrocytes, using parasite LDH activity as an index of growth.; format: functional, organism-based; conditions: Plasmodium falciparum, 3D7

SMILES	XC50 [nM]
COc1cccc2c(N/N=C/c3ccccc3[N+](=O)[O-])cc(C)nc12	424
CN(C)c1cc(NC(=O)Nc2ccccc2)c2ccccc2n1	405
O=C(Cn1c(CCc2cccc(F)c2F)cc(=O)c2cccnc21)N(CCN1CCCC1)Cc1ccc(-c2ccc(C(F)(F)F)cc2)cc1	890
CCN(CC)CCN(Cc1ccc(-c2ccc(C(F)(F)F)cc2)cc1)C(=O)Cn1cc(Cc2cnn(C)c2)c(=O)n2nc(-c3ccccc3)cc12	730
CS(=O)(=O)c1ccc(-c2nc(NCC3CCCCC3)cc(C(F)(F)F)n2)cc1	667
CCc1ccc(CN2CCC(CNC(=O)c3cc(-c4cccc(C(F)(F)F)c4)cs3)C2)cc1 (configuration not stated)	753
CCc1cn2c3c(cc(C(=O)N[C@@H](Cc4ccccc4)[C@H](O)CNC4CCOCC4)cc13)N(CC(F)(F)F)S(=O)(=O)CC2	29.6
CN1CCN(c2ccnc3ccc(NC(=O)Nc4ccc(-c5ccncc5)c5ccccc45)cc23)CC1	312
CC(C)c1cc(Oc2c(I)cc(CCNCc3ccccc3)cc2I)ccc1O	536
COCCN1CCC(NCC(C)(C)c2nc(-c3ccc(Cl)c(O)c3)c(-c3ccncc3)[nH]2)CC1	717
COc1ccc2nccc([C@@H](O)CN3CCC(NCc4nc5cc(F)cc(F)c5[nH]4)CC3)c2c1	573
N#Cc1nc2ccc(OCCN(Cc3ccccc3C(F)(F)F)c3ccc(C#N)c(C(F)(F)F)c3)cc2s1	855
COc1cc2nc(N3CCN(C(=O)c4ccc(N(C(=O)OC(C)(C)C)C(=O)OC(C)(C)C)cc4)CC3)nc(N)c2cc1OC	1000
CCCCOC(=O)C1=C(C)NC2=C(C(=O)CC(c3ccc(OC)c(OC)c3)C2)C1c1ccc(O)cc1 (configuration not stated)	834
COc1ccc(NC(=O)CSc2nc(-c3ccccc3Cl)ns2)cc1OC	759
O=C(NCc1ccc(C(=O)N2CCC(N3CCCCC3)CC2)cc1)c1cc(-c2cccc(C(F)(F)F)c2)ccc1O	817
CC(C)Cn1cc(C2CCN(CCN3CCC(CNC(=O)c4ccc(NC(=O)c5ccc(Cl)cc5)cc4)CC3)CC2)c2ccccc21	251
CC1(C)N=C(N)N=C(N)N1OCCCc1ccccc1	3.2
CCCCCc1cnc2nc(N)nc(N)c2c1	1230
O=C(Nc1ccccc1)Nc1cccc(-c2cc(CNCCc3ccccc3)sc2-c2ccncc2)c1	598
Nc1nc(N)c2cc(Cc3ccccc3Cl)cnc2n1	106
COc1cc(OC)cc(C(=O)Nc2cccc(-c3cn4ccc(C)cc4n3)c2)c1	994
CC(=O)Nc1ccc(C2NC(=O)NC(c3ccccc3)=C2c2nc3ccccc3s2)cc1 (configuration not stated)	1110
COc1cccc2cc(C(=O)N[C@@H](CC(C)C)C(=O)N[C@H](C=NN3CCCC3=O)Cc3ccccc3)oc12	558
Nc1nccc2ccc(-c3ccc(OCc4ccccc4)cc3)cc12	222

SMILES	XC50 [nM]
CN(C)c1nc(NN=Cc2cc(Cl)ccc2O)nc(Nc2ccc(F)cc2)n1	837
COc1ccc2nccc([C@@H](O)CN3CCC(NC(=O)c4ccc(-c5ccccc5)s4)CC3)c2c1	310
CN1CCC(NCc2ccc(-c3ccc(C(F)(F)F)cc3)cc2)CC1	798
CC(C)NCc1cccc(-c2cccc(NC(=O)c3ccc(C#N)cc3)c2)c1	646
CC(C)(C)c1ccc(S(=O)(=O)Nc2ccccc2N2CCOCC2)cc1	683
CCCc1cc(OCCCOc2ccccc2)ccc1OCCCON1C(=N)N=C(N)NC1(C)C	3.2
COc1cccc(C(=O)Nc2ccc(Oc3ccc(Cl)cc3)cc2)c1	956
Nc1ccncc1C(=O)NCCCCN1CCN(c2nsc3ccccc23)CC1	803
CS(=O)(=O)CCNCc1cccc(-c2ccc3c(Nc4ccc(Oc5cccnc5)cc4)ccnc3c2)c1	142
Cc1cccc(/C=C/C(=O)NC2CCC(N3CCC(c4ccccc4C)CC3)CC2)c1 (configuration not stated)	1110
CCCN(CCC)CCCCC(C)Nc1c2ccc(Cl)cc2nc2ccc(OC)cc12 (configuration not stated)	137
CCCc1ccc(N2C(N)=NC(N)=NC2(C)C)cc1	28.4
CCc1c[nH]c2c(N(c3ccccc3)S(C)(=O)=O)cc(C(=O)N[C@@H](Cc3ccccc3)[C@H](O)CNCc3cccc(C(F)(F)F)c3)cc12	997
Cc1ccc2c(c1)NCC21CCN(C[C@@H](O)C2CCN(c3ccnc(Cl)c3)CC2)CC1C (some centres not stated)	940
COc1cc2c(cc1C=CC(=O)N1CCN(Cc3nc(O)c4c(C)c(C)sc4n3)CC1)OC(C)C2 (configuration not stated)	1020
CC(CN1CCN(C)CC1)C(=O)Nc1cccc(-c2cccc(-c3nc4cc(F)ccc4[nH]3)c2)c1 (configuration not stated)	274
CN(C)C(=O)c1ccc(CN(Cc2ccc3c(c2)OCCO3)Cc2ccc3c(c2)OCO3)cc1	175
CCc1ccc(NC(=O)c2cccc(CN3CCCN(Cc4ccc(OC)cc4)CC3)c2)cc1	919
COc1cccc(OC)c1CN1CCC(N(C)CCCCCCCCN2CCC(OC(=O)Nc3ccccc3-c3ccccc3)CC2)CC1	458
O=C(/C=C/c1ccc(Cl)cc1)NCCCCCN1CCCN(C(=O)Nc2cccc(Cl)c2)CC1	1000
Nc1nccc2ccc(-c3ccc(NC(=O)Nc4cc(C(F)(F)F)ccc4F)cc3)cc12	86.3
Cc1ccc(/C=C/C(=O)NC2CCC(N3CCC(c4ccccc4C)CC3)CC2)cc1F (configuration not stated)	1040
CCCNCc1ccc(-c2ccc(CN(C(=O)c3nn(-c4ccccc4)nc3C)C3CC3)cc2)nc1	210
Cn1cc(CCNc2ccnc(NCCc3coc4ccccc34)n2)c2ccccc21	1060
Cc1cc(N[C@@H](CC(C)C)C(=O)NC2CCCC2)nc(NCc2ccccc2C)n1	1340

SMILES	XC50 [nM]
CS(=O)(=O)c1ccc(Nc2ncc(-c3ccc(S(C)(=O)=O)cc3)c(OCC(F)(F)F)n2)cc1	401
O=C(NCc1ccc(Cl)cc1)c1ccc(CN2CCCN(Cc3cccc(O)c3)CC2)cc1	1170
O=c1ccc2ccc(F)c3c2n1CC3CN1CCC(NCc2ccc(-c3cccc(Cl)c3)nc2)CC1 (configuration not stated)	992
COc1ccccc1C1CCN(C2CCC(NC(=O)/C=C/c3cc(C(F)(F)F)cc(C(F)(F)F)c3)CC2)CC1 (configuration not stated)	1200
CCCCc1cc(NCC)nc(Nc2ccc(F)cc2)n1	790
Cc1ccc(Nc2nccc(NCC(O)c3cccc(C(F)(F)F)c3)n2)cc1 (configuration not stated)	677
O=c1cc(NCCCNCc2cc(Cl)cc(Cl)c2OCc2ccc(Cl)cc2)[nH]c2ccccc12	693
O=C(NC(Cc1ccccc1)C(=O)O)c1cc(=O)c2ccccc2o1 (configuration not stated)	191
O=C(Nc1ccc2c(c1)CCN2C1CCN(Cc2ccc(F)cc2Cl)C1)c1ccco1 (configuration not stated)	470
COc1ccccc1C1CCN(C2CCC(NC(=O)/C=C/c3cc(F)cc(F)c3)CC2)CC1 (configuration not stated)	1110
Cc1cc2nc(-c3cc(Br)ccc3O)c(-c3cc(Br)ccc3O)nc2cc1C	853
Cc1ccccc1CN1CCCN(Cc2ccc(C(=O)Nc3ccc(C(C)(C)C)cc3)cc2)CC1	863
CCCC(=O)Nc1ccc(OCCCN(Cc2ccccc2F)c2ccc(C#N)c(C(F)(F)F)c2)cc1	595
COc1cc(Cl)c(C)cc1N(Cc1ccccc1-c1ccccc1)S(=O)(=O)c1ccc(C(F)(F)F)cc1	1050
CC(C)c1ccc(NC(=O)Nc2ccc(CCNCCCc3ccccc3)cc2)cc1	761
N#Cc1cccc(NC(=O)Nc2ccc3c(c2)CN(Cc2c[nH]c4ncccc24)C3)c1	800
c1cc(C2=NC3CCCCC3N2)ccc1OCCCCCOc1ccc(C2=NC3CCCCC3N2)cc1 (configuration not stated)	228
CCCCNCc1ccc(-c2nc(CN(CCCn3ccnc3)C(=O)Nc3ccc(CC)cc3)cs2)cc1	830
Cc1cccc2nc(-c3cccc(-c4ccc(NC(=O)c5cccnc5)cc4)c3)[nH]c12	594
O=[N+]([O-])c1ccccc1/C=N/Nc1ccnc2cc(Cl)ccc12	876
Nc1nc(N)c2c(ccc3c2ccn3CC2CC2)n1	211
COc1c(Br)cc(Br)cc1-c1ccc(CN2CC3CCC2CC3)[nH]1	693
COc1cc(F)c2nccc([C@@H](O)CN3CCC(NC(=O)OCc4ccccc4)C(F)C3)c2c1 (some centres not stated)	407
Cc1cccc2nc(-c3ccc(-c4ccc(CN5CCN(c6cnccn6)CC5)cc4)s3)[nH]c12	750
COc1cc(CNCCCNc2nc3ncccc3[nH]2)c2[nH]cc(Br)c2c1	1160

SMILES	XC50 [nM]
CCN1CCN(CCCNc2c3ccc(Cl)cc3nc3ccc(O)cc23)CC1	566
CS(=O)(=O)c1ccc(CNCc2ccc(-c3cccc(-c4nc5cc(F)ccc5[nH]4)c3)cc2)cc1	315
O=S(=O)(NC1CCN(c2ccnc3ccccc23)C1)c1ccc(OC(F)(F)F)cc1 (configuration not stated)	1080
CC(=O)Nc1ncc(C(=O)Nc2ccc(-c3cccc(-c4nc5cc(F)ccc5[nH]4)c3)cc2)s1	354
Cc1ccc(NC(=O)NC2CCN(c3ccnc4cc(Cl)ccc34)C2)cc1 (configuration not stated)	149
Cc1ccc(Nc2cc(C)nn2-c2nc(C)cc(O)n2)cc1	864
Cc1ccc(-n2c(Sc3ncnc4sccc34)nnc2N2CCCC2)cc1	263
O=C(Nc1ccc(OC2CCN(Cc3ccccc3)CC2)c(Cl)c1)c1ccco1	408
O=C(NCc1cccc2ccccc12)C(c1cc2ccccc2o1)N1CCN(C(c2ccccc2)c2ccccc2)CC1 (configuration not stated)	667
CC1(CCCCN2CCC(Cc3ccccc3)CC2)C(=O)Nc2ccccc21 (configuration not stated)	855
Cc1cccc2nc(-c3cccc(-c4cccc(NC(=O)c5cccnc5)c4)c3)[nH]c12	228
CCOC(=O)c1[nH]c2ccc(F)cc2c1NC(=O)CN1CCN(c2cccc(C(F)(F)F)c2)CC1	458
O=C(Nc1ccc(N2CCN(Cc3ccccc3)CC2)cc1)c1cccs1	769
CC(C)c1ccc(CN2CCC(NC(=O)c3ccc(-c4cccc(F)c4)s3)CC2)cc1	1330
O=C(O)Cc1ccc(-c2c[nH]c3ncc(-c4cccc5ncccc45)cc23)cc1	847
Fc1cccc(COc2ccc(Nc3ncnc4sc(C#C[C@H]5CC[C@H](CNCC(F)(F)F)N5)cc34)cc2Cl)c1	1420
Cc1cc(C=C2SC(=Nc3ccccc3)N(C3CCCC3)C2=O)c(C)n1-c1ccc(Cl)cc1	876
CN1CCC(OC(=O)c2cc3cc(-c4ccccc4)ccc3n2S(=O)(=O)c2ccccc2)CC1	1090
CC(C)(C)c1ccc2[nH]c(-c3ccc(/C=C/C(=O)NCc4cccc(C(F)(F)F)c4)cc3)nc2c1	986
Cc1ccc2[nH]c(-c3cc(-c4cccc(C#N)c4)cnc3N)nc2c1	117
Cc1ccc(NC(=O)c2ccc(N3CCN(c4ccncc4)CC3)cn2)cc1F	1570
COc1cc(NC(=O)c2cccs2)c(C(=O)NCc2ccc(C)cc2)cc1OC	1360
